How the values were obtained:
[1] = system: TNFα; assay: Mouse LPS-induced endotoxic shock, plasma TNFα; format: in vivo; design: key: +: statistically significant inhibition of TNFα; −: no effect on the level of TNFα; settings: 3 mg/kg, p.o.; plasma 90 min after LPS challenge
Procedure: (§1) Injection of lipopolysaccharide (LPS) induces a rapid release of soluble tumour necrosis factor (TNFα) into the periphery. This model was used to assess prospective blockers of TNFα release in vivo.
(§2) Lipopolysaccharide (LPS) from Escherichia Coli serotype O111:B4 was obtained from Sigma Aldrich (Cat #L2630).
(§3) BALB/cAnNCrl mice (female, 18-20 g body weight) were obtained from Charles River (Calco, Italy). Mice were kept on a 12 h light/dark cycle. Temperature was maintained at 22±2° C., food and water were provided ad libitum.
(§4) Mice were dosed once by oral (p.o.) or subcutaneous (sc) route with the tested compound in the appropriate vehicle.
(§5) At the Tmax of compound, 100 μg of LPS (in H2O) was injected intraperitoneally to mice. A control group was included which comprises administering the vehicle without an LPS challenge.
(§6) Mice were sacrificed 90 min after LPS challenge and blood was collected in heparinised tubes. Plasma was obtained by centrifugation for 15 min, 2000×g at +4° C. and frozen at −80° C. before cytokine analysis.
(§7) TNFα and IL-10 were quantified in plasma by AlphaLISA detection kits obtained from PerkinElmer (Massachusetts, USA), Cat4 AL505C and AL502C, respectively.
(§8) Statistics were performed with Prism 5.03 software (GraphPad) using an ANOVA analysis of variance with Dunnett's post-hoc test versus LPS group.
(§9) Active compounds were defined as showing a statistically significant decrease in TNFα with or without a statistically significant induction of IL-10

[2] = system: IL-10; assay: Mouse LPS-induced endotoxic shock, plasma IL-10; format: in vivo; design: key: +: statistically significant induction of IL-10; −: no effect on the level of IL-10; settings: 3 mg/kg, p.o.; plasma 90 min after LPS challenge
Procedure: as §1, §2, §3, §4, §5, §6, §7, §8, §9

[3] = target: T1, SIK1 (Homo sapiens, UniProt P57059); assay: ADP-Glo kinase assay, SIK1; format: biochemical; settings: ADP-Glo SIK kinase assay
T1 construct: purchased Carna Biosciences 02-131
Outline: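 ADP-Glo, RT throughout. Enz/substrate + ATP, 120 min; ADP-Glo reagent 40 min (ATP depletion); detection reagent 30 min; luminescence read. Neg ctrl 1% DMSO, pos ctrl 10 μM staurosporine, final concs.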

[4] = target: T2, SIK2 (Homo sapiens, UniProt Q9H0K1); assay: ADP-Glo kinase assay, SIK2; format: biochemical; settings: ADP-Glo SIK kinase assay
T2 construct: purchased ThermoFisher Scientific PV4792
Outline: (§10)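 ADP-Glo luminescent assay of ADP formed by SIK2 or SIK3 with substrate after ATP addition, 120 min at RT. Remaining ATP depleted 40 min, then ADP converted to ATP and read by luciferase luminescence after 30 min. Controls: 1% DMSO and 10 μM staurosporine (final).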

[5] = system: LPS-induced TNFα in monocyte-derived macrophages (MdM); assay: MdM assay: LPS-triggered TNFα (ELISA); format: cell-based, human; settings: Homo sapiens, Macrophage, 20 h, monocyte-derived macrophages, LPS 200 ng/mL, supernatant after 20 h; read-out: TNFα EC50
Procedure: This assay evaluates illustrative compounds of the invention for their inhibition of LPS-induced TNFα and LPS triggered IL-10 secretion in monocyte-derived macrophages.
PBMCs are isolated from human blood samples (buffycoats). The buffy coat is aseptically transferred into a 50 mL Falcon tube, and diluted 1/2 in PBS. Falcon tubes are filled with 20 mL Lymphoprep™, on top of which 25 mL of the buffy coat is carefully added, tubes are centrifuged for 35 min at 400 g in temperature controlled centrifuge, without brake, at 25° C. PBMCs are aspirated from the white interface layer between sample and Lymphoprep™. PBMCs are washed five times in PBS.
PBMCs are centrifuged at 300×g for 10 min and resuspended at a density of 1.0*10^7 cells/80 μL Miltenyi buffer (PBS, pH 7.4, 1% FBS, 2 mM EDTA).
Starting from this point of the protocol all steps are performed on ice. 20 μL of CD14+ micro-beads are added per 1.0*10^7 cells, the tube is mixed and incubated for 15 min in the fridge at 4° C. Cell suspension volume is adjusted to total volume of 100 mL using Miltenyi buffer, mixed gently and subsequently centrifuged for 10 min at 300×g. Supernantant is discarded and cell pellet is resuspended in 12 mL of Miltenyi buffer.
Four LS columns are placed in the MACS Separator (magnet) from Miltenyi Biotec, and are prewet by rinsing with 3 mL of MACS buffer per column. Three mL of cell suspension is added onto the column (max 1*10^8 of labelled cells/column), and columns are subsequently washed 3 times with 3 mL of Miltenyi buffer.
The columns are removed from the magnets, and 5 mL of Miltenyi buffer are added to the column to flush out the CD14+ fraction by pushing the plunger into the column. The flushed fractions are collected in a fresh 50 mL Falcon and volume is adjusted to 30 mL using Miltenyi buffer, cells are centrifuged for 10 min at 300×g. The obtained cell pellet is resuspended in 10 mL RPMI w/o FBS, and cell density is determined using a hematologic analyser (Sysmex XS-500i).
On day 10, MdMs are triggered and compound is added.
A compound dilution plate is made in 100% DMSO by 3-fold dilution of 10 mM stock solution. An intermediate dilution plate (10× final concentration) is made by diluting the compound dilution plate 50-fold in RPMI medium.
Medium is carefully removed from cell plates using multichannel pipette, and replaced by 80 μL fresh medium. 10 μL of the 10× final concentration compound is added to the cells and incubated for 1 hour at 37° C. before addition of trigger. No trigger conditions/trigger conditions are spiked with equal final DMSO concentrations of 0.2% DMSO. 10 μL of 10×LPS (final conc. 200 ng/mL) solution are added to all wells except for the ‘no trigger wells’ where 10 μL medium is added. Supernatant is collected after 2 h (IL-10 determination) and after 20 h (TNFα determination) of LPS triggering.
The plate is then washed once with PBST (PBS+0.05% Tween20) and once with PBS followed by the addition of 100 μL of blocking buffer (1% Bovine Serum Albumin (BSA)−5% Sucrose) and plates are sealed and incubated for at least 4 h at RT. After washing the plate once with PBST and once with PBS, 40 μL of standard or sample are added (TNFα standard curve is prepared using a 1/2 serial dilution starting from […]; dilutions are made in dilution buffer (PBS+1% BSA)). Plates are washed twice with PBST, and once with PBS, after which 35 μL of the detection antibody is added (final concentration 0.25 μg/mL diluted in dilution buffer) and plates are incubated for at least 2 h at RT. Plates are washed twice with PBST, and once with PBS, where after 35 μL of Strep-HRP conjugate (0.5 μg/mL final concentration diluted in dilution buffer) is added. Plates are incubated in the dark, at RT for at least 45 min but no longer than 1 hour. Plates are washed twice with PBST, and once with PBS.

[6] = target: T3, SIK3 (Homo sapiens, UniProt Q9Y2K2); assay: ADP-Glo kinase assay, SIK3; format: biochemical; settings: ADP-Glo SIK kinase assay
T3 construct: purchased SignalChem S12-11G-100
Outline: as §10

T2 sequence (Q9H0K1 whole entry): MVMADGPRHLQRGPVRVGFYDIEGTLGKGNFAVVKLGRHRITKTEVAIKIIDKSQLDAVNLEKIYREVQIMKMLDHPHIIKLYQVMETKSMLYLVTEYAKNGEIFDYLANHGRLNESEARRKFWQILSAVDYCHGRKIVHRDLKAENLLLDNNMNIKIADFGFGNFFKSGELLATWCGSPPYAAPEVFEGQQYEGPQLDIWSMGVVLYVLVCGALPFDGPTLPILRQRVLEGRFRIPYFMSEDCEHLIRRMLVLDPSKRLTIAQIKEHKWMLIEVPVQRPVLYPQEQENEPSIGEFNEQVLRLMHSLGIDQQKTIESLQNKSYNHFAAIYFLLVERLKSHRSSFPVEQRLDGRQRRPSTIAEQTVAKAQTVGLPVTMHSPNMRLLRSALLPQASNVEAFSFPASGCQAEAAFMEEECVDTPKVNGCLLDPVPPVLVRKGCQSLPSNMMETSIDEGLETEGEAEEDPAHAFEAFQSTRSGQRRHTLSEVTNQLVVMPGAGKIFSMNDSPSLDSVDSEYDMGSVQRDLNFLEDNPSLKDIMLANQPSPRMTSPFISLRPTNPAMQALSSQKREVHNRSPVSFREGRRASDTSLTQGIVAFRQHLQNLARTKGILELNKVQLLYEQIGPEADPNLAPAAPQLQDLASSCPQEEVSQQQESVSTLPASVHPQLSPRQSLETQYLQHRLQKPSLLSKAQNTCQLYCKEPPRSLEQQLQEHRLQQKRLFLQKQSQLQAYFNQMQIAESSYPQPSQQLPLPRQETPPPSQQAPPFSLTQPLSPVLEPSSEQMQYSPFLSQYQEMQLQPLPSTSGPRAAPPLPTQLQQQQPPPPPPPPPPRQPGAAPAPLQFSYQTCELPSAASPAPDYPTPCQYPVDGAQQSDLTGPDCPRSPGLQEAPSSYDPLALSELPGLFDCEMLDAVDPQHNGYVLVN
T3 sequence (Q9Y2K2 whole entry): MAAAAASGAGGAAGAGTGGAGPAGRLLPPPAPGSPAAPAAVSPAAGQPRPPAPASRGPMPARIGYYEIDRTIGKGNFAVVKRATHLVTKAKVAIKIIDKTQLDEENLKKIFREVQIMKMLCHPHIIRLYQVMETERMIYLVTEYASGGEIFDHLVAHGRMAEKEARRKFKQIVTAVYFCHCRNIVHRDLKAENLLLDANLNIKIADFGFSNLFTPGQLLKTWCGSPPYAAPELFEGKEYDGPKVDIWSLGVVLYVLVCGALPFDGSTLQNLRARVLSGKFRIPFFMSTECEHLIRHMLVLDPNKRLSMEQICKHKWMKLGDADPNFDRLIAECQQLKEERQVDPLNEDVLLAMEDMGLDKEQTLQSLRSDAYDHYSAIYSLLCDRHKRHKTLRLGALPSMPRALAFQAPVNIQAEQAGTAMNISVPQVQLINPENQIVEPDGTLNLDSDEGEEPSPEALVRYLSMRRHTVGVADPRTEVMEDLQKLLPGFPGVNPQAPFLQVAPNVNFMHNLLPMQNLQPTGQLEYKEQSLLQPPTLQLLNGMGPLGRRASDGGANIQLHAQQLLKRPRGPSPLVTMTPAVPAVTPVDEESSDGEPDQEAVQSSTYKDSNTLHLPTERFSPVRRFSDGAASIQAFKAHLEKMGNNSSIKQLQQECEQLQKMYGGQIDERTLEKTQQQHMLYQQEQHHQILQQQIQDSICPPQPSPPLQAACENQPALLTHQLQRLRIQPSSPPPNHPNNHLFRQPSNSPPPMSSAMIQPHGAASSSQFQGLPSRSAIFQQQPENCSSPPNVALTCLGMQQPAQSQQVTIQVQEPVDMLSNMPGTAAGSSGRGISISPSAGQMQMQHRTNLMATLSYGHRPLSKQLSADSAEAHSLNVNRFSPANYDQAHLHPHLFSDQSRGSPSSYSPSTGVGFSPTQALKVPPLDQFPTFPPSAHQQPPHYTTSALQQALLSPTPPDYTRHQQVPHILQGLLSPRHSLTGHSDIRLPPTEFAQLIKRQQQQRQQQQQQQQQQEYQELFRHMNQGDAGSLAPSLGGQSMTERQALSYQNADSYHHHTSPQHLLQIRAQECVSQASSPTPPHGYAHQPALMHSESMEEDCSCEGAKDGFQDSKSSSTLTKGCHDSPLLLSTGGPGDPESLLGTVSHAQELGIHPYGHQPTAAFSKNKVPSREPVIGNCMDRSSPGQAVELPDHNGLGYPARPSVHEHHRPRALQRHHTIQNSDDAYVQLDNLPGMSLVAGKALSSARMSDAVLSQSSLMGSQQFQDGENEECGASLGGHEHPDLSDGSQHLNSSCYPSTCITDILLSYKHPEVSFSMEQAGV
T1 sequence (P57059 whole entry): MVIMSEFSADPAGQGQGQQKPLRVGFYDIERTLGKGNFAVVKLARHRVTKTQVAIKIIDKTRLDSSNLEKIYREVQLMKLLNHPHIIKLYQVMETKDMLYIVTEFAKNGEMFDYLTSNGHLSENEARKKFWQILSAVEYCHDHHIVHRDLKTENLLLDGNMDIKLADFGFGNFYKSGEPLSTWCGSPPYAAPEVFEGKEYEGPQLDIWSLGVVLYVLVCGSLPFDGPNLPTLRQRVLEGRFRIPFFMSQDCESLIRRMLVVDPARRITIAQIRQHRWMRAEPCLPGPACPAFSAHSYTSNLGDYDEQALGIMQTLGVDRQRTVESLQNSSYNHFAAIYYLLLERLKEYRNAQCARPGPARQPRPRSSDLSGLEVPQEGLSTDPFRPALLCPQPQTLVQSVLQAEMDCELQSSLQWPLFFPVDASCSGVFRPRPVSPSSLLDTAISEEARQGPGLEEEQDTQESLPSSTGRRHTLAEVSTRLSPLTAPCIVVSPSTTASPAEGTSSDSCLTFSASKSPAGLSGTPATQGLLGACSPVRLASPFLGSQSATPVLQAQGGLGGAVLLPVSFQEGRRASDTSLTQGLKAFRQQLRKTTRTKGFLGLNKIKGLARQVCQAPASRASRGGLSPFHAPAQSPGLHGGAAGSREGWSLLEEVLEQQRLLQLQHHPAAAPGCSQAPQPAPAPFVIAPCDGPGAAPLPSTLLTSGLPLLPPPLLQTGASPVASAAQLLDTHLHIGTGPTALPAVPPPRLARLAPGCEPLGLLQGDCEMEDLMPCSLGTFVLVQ

In the case of `COc1cc(-c2cnc3cc(OCCCN4CCCCC4)ccn23)cc(OC(F)F)c1C(=O)NC1CC1` [compound 16, N-cyclopropyl-2-(difluoromethoxy)-6-methoxy-4-[7-[3-(1-piperidyl)propoxy]imidazo [1,2-a]pyridin-3-yl]benzamide], the TNFα [1] is reported as “−”, the IL-10 [2] is reported as “−” and the IC50 [3] is reported as 10 to 100 nM. The IC50 [4] was 0.01 to 10 nM, the EC50 [5] was 0.1 to 100 nM and the IC50 [6] was 0.01 to 10 nM.
